The structures appear in SMILES notation. pIC50: −log10 of the molar value.

The first assay concerns P. falciparum-infected RBCs. The assay is described as follows: Glycolysis IC50 / lactate excretion assay in P. falciparum-infected RBCs. It counts as cell-based. The following applies: Plasmodium falciparum. The protocol:
The cultures were harvested and DNA quantitated using the standard Sybr Green I fluorescence assay. […] The culture medium was harvested and extracellular lactic acid was quantified by LC-MS.
P. falciparum (HB-3 strain) cultures were maintained in standard culture conditions. […] Parasites were grown in O+ donor blood, 2% hematocrit.
Parasite cultures were seeded in 96-well plates (1% hematocrit, 1-2% starting parasitemia, 100 μL total volume) with varying concentrations of the test compounds in a final concentration of 0.1% DMSO. Plates were cultured for 48 hours before harvesting the culture medium for LC-MS analysis. At harvest, thin smears were taken and examined microscopically to observe any alterations in parasite morphology.
Culture medium samples were diluted in 9 volumes of methanol containing U-^13C-glucose and 1-^13C-lactate (final concentration 0.25 mM each). The samples were clarified by centrifugation at 13,000 RCF for 10 minutes. […] Mobile phase A was acetonitrile, and mobile phase B was 20 mM ammonium acetate (pH 9.4).
(§1) The sample was analyzed on an Exactive mass spectrometer (Thermo Scientific) to determine the chromatographic peak areas the analytes and internal standards. Glucose and lactate were quantified by taking the ratio of the unlabeled peak area to the area of the isotope-labeled standard.
The pIC50 is −log10 of the IC50, conventionally taken in molar units. `CC(C)NC(=O)COc1cccc(-c2nc(Nc3ccc4[nH]ncc4c3)c3sccc3n2)c1` [Example 3]: the negative-log IC50 (pIC50) was 6.60 to 7.00.

Turning to `CC(=O)N1CCc2nc(-c3cccc(OCC(=O)NC(C)(C)C)c3)nc(Nc3ccc(-c4cn[nH]c4)cc3)c2C1` [Example 48, 2-(3-(4-((4-(1H-pyrazol-4-yl)phenyl)amino)-6-acetyl-5,6,7,8-tetrahydropyrido[4,3-d]pyrimidin-2-yl)phenoxy)-N-(tert-butyl)acetamide], the pIC50 is 7.00 to 8.00.

On to `O=C(COc1cccc(-c2nc3c(c(Nc4ccc(-c5cn[nH]c5)cc4)n2)COC3)c1)NC1CCC1` [Example 12], for which the pIC50 was 6.60 to 7.00.

In the case of `CC(=O)N1CCc2nc(-c3cccc(OCC(=O)NC4CCCC4)c3)nc(Nc3ccc(-c4cn[nH]c4)cc3)c2C1` [Example 57, 2-(3-(4-((4-(1H-pyrazol-4-yl)phenyl)amino)-6-acetyl-5,6,7,8-tetrahydropyrido[4,3-d]pyrimidin-2-yl)phenoxy)-N-cyclopentylacetamide], the pIC50 was 6.60 to 7.00.

As to `CC(C)(C)CNC(=O)COc1cccc(-c2nc3c(c(Nc4ccc(-c5cn[nH]c5)cc4)n2)COC3)c1` [Example 30, 2-(3-(4-((4-(1H-pyrazol-4-yl)phenyl)amino)-5,7-dihydrofuro[3,4-d]pyrimidin-2-yl)phenoxy)-N-neopentylacetamide], the negative-log IC50 (pIC50) was 6.60 to 7.00.

Compound `CC(C)NC(=O)COc1cccc(-c2nc(Nc3ccc(-c4cn[nH]c4)cc3)c3ncsc3n2)c1` [Example 22, 2-(3-(7-((4-(1H-pyrazol-4-yl)phenyl)amino)thiazolo[5,4-d]pyrimidin-5-yl)phenoxy)-N-isopropylacetamide] showed a pIC50 of 6.30 to 6.60.

In turn, `O=C(COc1cccc(-c2nc3c(c(Nc4ccc(-c5cn[nH]c5)cc4)n2)CSC3)c1)NC1CCC1` [Example 35, 2-(3-(4-((4-(1H-pyrazol-4-yl)phenyl)amino)-5,7-dihydrothieno[3,4-d]pyrimidin-2-yl)phenoxy)-N-cyclobutylacetamide] had a pIC50 of 6.00 to 6.30.

Compound `CC(C)NC(=O)COc1cccc(-c2nc3c(c(Nc4ccc(-c5cn[nH]c5)cc4)n2)CSC3)c1` [Example 34, 2-(3-(4-((4-(1H-pyrazol-4-yl)phenyl)amino)-5,7-dihydrothieno[3,4-d]pyrimidin-2-yl)phenoxy)-N-isopropylacetamide] showed a pIC50 of 6.00 to 6.30.

With `CCC(C)(C)NC(=O)COc1cccc(-c2nc(Nc3ccc(-c4cn[nH]c4)cc3)c3sccc3n2)c1` [Example 43, 2-(3-(4-((4-(1H-pyrazol-4-yl)phenyl)amino)thieno[3,2-d]pyrimidin-2-yl)phenoxy)-N-(tert-pentyl)acetamide], the pIC50 is 7.00 to 8.00.

`CC(C)CNC(=O)COc1cccc(-c2nc3c(c(Nc4ccc(-c5cn[nH]c5)cc4)n2)COC3)c1` [Example 29, 2-(3-(4-((4-(1H-pyrazol-4-yl)phenyl)amino)-5,7-dihydrofuro[3,4-d]pyrimidin-2-yl)phenoxy)-N-isobutylacetamide] had a negative logarithm of the IC50 (pIC50) of 6.60 to 7.00.

In turn, `O=C(COc1cccc(-c2nc(Nc3ccc(-c4cn[nH]c4)cc3)c3occc3n2)c1)NC1CCCC1` [Example 9] showed a pIC50 of 6.30 to 6.60.

`O=C(COc1cccc(-c2nc3c(c(Nc4ccc(-c5cn[nH]c5)cc4)n2)COCC3)c1)NC1CCCC1` [Example 51, 2-(3-(4-((4-(1H-pyrazol-4-yl)phenyl)amino)-7,8-dihydro-5H-pyrano[4,3-d]pyrimidin-2-yl)phenoxy)-N-cyclopentylacetamide] showed a pIC50 of 6.60 to 7.00.

`CC(=O)N1CCc2nc(-c3cccc(OCC(=O)NCC(C)C)c3)nc(Nc3ccc(-c4cn[nH]c4)cc3)c2C1` [Example 59, 2-(3-(4-((4-(1H-pyrazol-4-yl)phenyl)amino)-6-acetyl-5,6,7,8-tetrahydropyrido[4,3-d]pyrimidin-2-yl)phenoxy)-N-isobutylacetamide] showed a negative logarithm of the IC50 (pIC50) of 6.60 to 7.00.

Take `CC(C)CNC(=O)COc1cccc(-c2nc3c(c(Nc4ccc(-c5cn[nH]c5)cc4)n2)COCC3)c1` [Example 46, 2-(3-(4-((4-(1H-pyrazol-4-yl)phenyl)amino)-7,8-dihydro-5H-pyrano[4,3-d]pyrimidin-2-yl)phenoxy)-N-isobutylacetamide]: the pIC50 is 7.00 to 8.00.

Regarding `CC(C)(C)NC(=O)COc1cccc(-c2nc(Nc3ccc(-c4cn[nH]c4)cc3)c3sccc3n2)c1` [Example 42, 2-(3-(4-((4-(1H-pyrazol-4-yl)phenyl)amino)thieno[3,2-d]pyrimidin-2-yl)phenoxy)-N-(tert-butyl)acetamide], the pIC50 is 6.60 to 7.00.

In the case of `CC(C)CNC(=O)COc1cccc(-c2nc(Nc3ccc(-c4cn[nH]c4)cc3)c3cnn(C)c3n2)c1` [Example 18, 2-(3-(4-((4-(1H-pyrazol-4-yl)phenyl)amino)-1-methyl-1H-pyrazolo[3,4-d]pyrimidin-6-yl)phenoxy)-N-isobutylacetamide], the pIC50 was 7.00 to 8.00.

The compound `CC(C)NC(=O)COc1cccc(-c2nc(Nc3ccc(-c4cn[nH]c4)cc3)c3cnccc3n2)c1` [Example 53, 2-(3-(4-((4-(1H-pyrazol-4-yl)phenyl)amino)pyrido[4,3-d]pyrimidin-2-yl)phenoxy)-N-isopropylacetamide] had a pIC50 of 6.60 to 7.00.

The subject of another assay is P. falciparum (3D7 strain)-infected erythrocyte cultures. The assay is described as follows: LC-MS metabolomics analysis of ATP levels in infected erythrocyte cultures. It counts as cell-based, Plasmodium falciparum. The following applies: 2.5 uM compound. The protocol:
The ATP levels of the infected cells are substantially depleted within 15 minutes of compound exposure and remain so for the duration of the experiment.
Cellular metabolite levels were determined in cultures that had been enriched for late stage (trophozoite/schizont)-infected erythrocytes by centrifuging a bulk culture suspension over a two-step Percoll gradient (65%/35% Percoll) at 1,500 RCF for 15 minutes and collecting the parasitized erythrocytes at the interface. 10 uL of packed cells were pelleted from the resulting cultures by centrifugation (500 RCF, 5 minutes), the culture medium removed by aspiration, and the cells extracted with 1.2 mL of 80% methanol/20% on dry ice. The first extraction was collected as the supernatant after centrifugation (1,000 RCF, 5 minutes) and the pellet extracted again with 0.3 mL of 80% methanol/20%. The two extracts were pooled, dried under nitrogen and resuspended in 200 uL of water prior to LC-MS analysis. […]
as §1
Regarding `CC(C)NC(=O)COc1cccc(-c2nc(Nc3ccc4[nH]ncc4c3)c3sccc3n2)c1` [Example 3], the “time until ATP levels of the infected cells are substantially depleted” value is not above 15 min.

The values are drawn from patent publication US10729691B2, “Treatment of infectious diseases with glucose uptake inhibitors” (Kadmon Corporation LLC, priority 2015, dated 2020).
